Experimental data: the supplement of paper PMC10290057

Columns and labels:
HCT116 [1] = experiment: AC50 cell viability (CellTiter-Glo); higher = less potent; conditions: 48 h
HCT116 [2] = experiment: efficacy (fitted maximal change in viability relative to DMSO control); higher = less cytotoxic (negative = loss of viability); conditions: 48 h
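For AC50 cell viability (CellTiter-Glo) in this document: HCT116 colorectal carcinoma cells screened at five concentrations per compound, luminescent viability scaled between DMSO wells and empty wells on each plate, curves fitted per compound.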
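For efficacy (fitted maximal change in viability relative to DMSO control) in this document: Luminescence-based viability readout, five doses per compound, normalized against on-plate DMSO and empty-well controls, followed by dose-response curve fitting for every drug.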

SMILES	AC50 cell viability (HCT116 [1]) [µM]	efficacy (HCT116 [2]) [%]
C[C@H]([C@H]1C\C(=C(CO)/C(=O)O1)C)[C@H]2CC[C@H]3[C@@H]4C[C@H]5O[C@]56[C@@H](O)\C=C/C(=O)[C@]6(C)[C@H]4CC[C@]23C [Withaferin A]	1.66	-102
COc1ccc(F)c(F)c1C(=O)c1cnc(NC2CCN([S+](C)(=O)[O-])CC2)nc1N [R-547]	0.417	-67.8
Cc1nc2cnc3ccc(C#Cc4cccnc4)cc3c2n1-c1ccc(C(C)(C)C#N)cc1 [BAG-956]	1.18	-92.6
FC1=CC2=C3[N](CCN(CC3=C1)C(=O)N4CCCCC4)C=C2C/5=C(C(=O)NC5=O)\C6=CN=C7C=CC=C[N]67	11.8	-108
Cc1ccc(Nc2nccc(N(C)c3ccc4c(C)n(C)nc4c3)n2)cc1[S+](N)(=O)[O-] [Pazopanib]	5.25	-51.5
Cc1cnc(NC(=O)Nc2cc(Br)c(C)cc2OC[C@@H]2CNCCO2)cn1 [Rabusertib]	16.6	-103
COc1cc2nccc(Oc3ccc(NC(=O)Nc4cc(C)on4)c(Cl)c3)c2cc1OC [Tivozanib (AV-951)]	11.8	-80.3
COc1cc2c(Oc3ccc(NC(=O)C4(C(=O)Nc5ccc(F)cc5)CC4)cc3F)ccnc2cc1OCCCN1CCOCC1 [Foretinib]	5.9	-101
C=C1C(=O)OC2/C=C(/C)CC/C=C(/C)CCC12 (configuration not stated) [Costunolide]	20.9	-86.2
CCNC(=O)C[C@@H]1\N=C(C2=CC=C(Cl)C=C2)/C3=C(C=CC(=C3)OC)[N]4C(=NN=C14)C [I-BET762]	2.63	-67
CCOC(=O)CCNc1cc(N2CCc3ccccc3CC2)nc(-c2ccccn2)n1 [GSK-J4]	2.95	-90.6
Nc1nc(N)c2nc(-c3cccc(Cl)c3)c(N)nc2n1 [Epiblastin A]	1.66	-85
COc1ncc(-c2ccc3nccc(-c4ccnnc4)c3c2)cc1N[S+](=O)([O-])c1ccc(F)cc1F	0.105	-74.6
NC(=O)c1ccc2[nH]c(-c3ccc(Oc4ccc(Cl)cc4)cc3)nc2c1 [BML-277]	18.6	-67.3
COc1ccc(CNC(=O)Nc2ncc([N+](=O)[O-])s2)cc1	20.9	-96.6
Cc1c(NC(=O)OCC2COCCN2)cn2ncnc(Nc3ccc4c(cnn4Cc4cccc(F)c4)c3)c12 (configuration not stated)	26.3	-91.3
COc1ccc([S+](=O)([O-])N2CCc3cccc(-c4ccncc4)c32)cc1 [MPT-0B098]	0.417	-61.1
C[C@@H](Oc1cc(-n2cnc3ccc(CN4CCN(C)CC4)cc32)sc1C(N)=O)c1ccccc1C(F)(F)F	0.0468	-57.6
C/C=C(/C)C(=O)O[C@H]1C(C)=C2[C@H]([C@@H]1OC(=O)CCCCCCC)[C@@](C)(OC(C)=O)C[C@H](OC(=O)CCC)[C@@]1(O)[C@H]2OC(=O)[C@@]1(C)O [Thapsigargin]	0.0525	-93.2
NC(=O)[C@H]1CCS[C@@H]2C[C@]3(CCCN3C(=O)Cc3ccc(NC(=O)COc4ccc(Cl)cc4Cl)cc3)C(=O)N12 [ST-2825]	10.5	-68.6
CCCCNc1ncc(-c2ccc(CN3CCOCC3)cn2)c(N[C@H]2CC[C@H](O)CC2)n1 [UNC2250]	3.62	-51.5

SMILES	AC50 cell viability (HCT116 [1]) [µM]	efficacy (HCT116 [2]) [%]
O=C(/C=C/C#Cc1cccc(N[S+](=O)([O-])c2ccccc2)c1)NO [Oxamflatin]	1.02	-99.5
COC(=O)Nc1cc(Nc2cc(NC3CC3)c3ncc(C#N)n3n2)c(Cl)c(N2CCN(C)CC2)c1 [BMS-595]	0.525	-103
CC[C@@](C)(Nc1ccnc(-c2c[nH]c3ncccc23)n1)C(=O)NCC(F)(F)F [Decernotinib]	20.9	-56.7
C=CC(=O)Nc1ccc2ncnc(Nc3ccc(OCc4cccc(F)c4)c(Cl)c3)c2c1 [AST-1306]	11.8	-98.3
c1ccc(Cn2c(-c3ccc(OCC(C4CCNCC4)n4c(-c5ccccc5)nc5ccccc54)cc3)nc3ccccc32)cc1 (configuration not stated) [Deltarasin]	9.34	-89.7
COC1=CC=C2Nc3cc(Cl)ccc3C(N=C3C=C(CN4CCCC4)C(=O)C(CN4CCCC4)=C3)=C2N1 [PYRONARIDINE TETRAPHOSPHATE]	9.34	-76.4
C[C@H](CN(C)C)Oc1nc(Nc2cc3cccc(Cl)c3cn2)cnc1C#N	3.32	-31.2
Nc1nc(-c2nn(Cc3ccccc3F)c3ncccc23)ncc1C1CC1 [BAY-41-2272]	1.05	-51.2
Cc1cccc(-c2[nH]c(C(C)(C)C)nc2-c2ccc3c(c2)OCO3)n1	2.95	-86.6
OC1=CC2=C(C(=C1)O)C(=O)\C=C(/O2)C3=CC=CC=C3 [Chrysine]	20.9	-49.1
COC1=CC(=C2C(=O)N(COC/3=C/C(=O)N4\C=C/C=C(OCCN5CCCCC5)\C4=N3)[S+]([O-])(=O)C2=C1)C(C)C	20.9	-84.2
CN(C)CCCN\C1=C\2C(=O)N(C)C(=O)\N=C2N(C)C3=C1C=CC=C3	5.25	-67.5
C[C@H]1O[C@H]([C@H](O)[C@@H]1O)N2\C=C(F)/C(=O)NC2=O [Doxifluridine]	7.42	-68.1
C[C@@H]1CC2C3C[C@H](F)C\4=C\C(=O)\C=C/[C@]4(C)[C@@]3(F)[C@@H](O)C[C@]2(C)[C@@]1(OC(=O)C5=CC=CO5)C(=O)SCF (some centres not stated) [Fluticasone furoate]	20.9	-76.9
COc1ccc(-c2nc(N3CCOCC3)c3sc(CN(C)c4ncc(C(=O)NO)cn4)cc3n2)cn1 [CUDC-907]	0.0372	-96.8
CC(NC1=CC=CC=C1)C\2=C\C(=C/N3C(=O)\C=C(/N=C23)N4CCOCC4)C (configuration not stated) [TGX-221]	18.6	-44.2
O=C(NCc1ccc([S+](=O)([O-])c2cccc(C(F)(F)F)c2)cc1)c1cnc2[nH]ncc2c1 [GNE-618]	0.0166	-90.4
CC[C@@H]([C@H](C)O)N1\N=C/N(C1=O)C2=CC=C(C=C2)N3CCN(CC3)C4=CC=C(OCC5CO[C@@](C5)(C[N]6C=NC=N6)C7=C(F)C=C(F)C=C7)C=C4 (some centres not stated) [Posaconazole]	6.61	-58.4
Cn1c2ccccc2c2c3c(c4c5ccccc5n(CCC#N)c4c21)CNC3=O [Go-6976]	18.6	-63
CN(Cc1cnc2nc(N)nc(N)c2n1)c1ccc(C(=O)N[C@@H](CCC(=O)O)C(=O)O)cc1 [Methotrexate]	0.118	-84.4
